Data from patent US9771360B2, “Cyano-substituted imidazo[1,2-A]pyridinecarboxamides and their use” (Bayer Pharma Aktiengesellschaft, priority 2014, dated 2017).

Target: T1, recombinant guanylate cyclase reporter cell line (Rattus norvegicus, UniProt P19686+P20595)
T1 construct: expressed in transfected cells
T1 sequence (P20595 1-619): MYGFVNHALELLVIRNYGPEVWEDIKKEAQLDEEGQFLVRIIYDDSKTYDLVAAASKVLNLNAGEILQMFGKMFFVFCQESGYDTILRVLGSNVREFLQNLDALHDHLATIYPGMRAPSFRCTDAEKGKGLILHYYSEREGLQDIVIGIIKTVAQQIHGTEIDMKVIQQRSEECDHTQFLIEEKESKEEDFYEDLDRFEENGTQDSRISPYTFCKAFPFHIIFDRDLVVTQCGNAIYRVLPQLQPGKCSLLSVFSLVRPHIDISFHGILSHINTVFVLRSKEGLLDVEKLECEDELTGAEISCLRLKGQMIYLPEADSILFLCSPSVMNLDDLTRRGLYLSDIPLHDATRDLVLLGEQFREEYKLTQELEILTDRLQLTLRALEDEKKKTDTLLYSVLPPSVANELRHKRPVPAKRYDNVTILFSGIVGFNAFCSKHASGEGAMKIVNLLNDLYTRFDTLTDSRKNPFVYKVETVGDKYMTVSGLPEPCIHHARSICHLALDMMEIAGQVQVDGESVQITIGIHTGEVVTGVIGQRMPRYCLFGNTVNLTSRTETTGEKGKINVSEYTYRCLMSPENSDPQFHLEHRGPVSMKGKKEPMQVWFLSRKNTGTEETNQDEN
T1 sequence (P19686 1-690): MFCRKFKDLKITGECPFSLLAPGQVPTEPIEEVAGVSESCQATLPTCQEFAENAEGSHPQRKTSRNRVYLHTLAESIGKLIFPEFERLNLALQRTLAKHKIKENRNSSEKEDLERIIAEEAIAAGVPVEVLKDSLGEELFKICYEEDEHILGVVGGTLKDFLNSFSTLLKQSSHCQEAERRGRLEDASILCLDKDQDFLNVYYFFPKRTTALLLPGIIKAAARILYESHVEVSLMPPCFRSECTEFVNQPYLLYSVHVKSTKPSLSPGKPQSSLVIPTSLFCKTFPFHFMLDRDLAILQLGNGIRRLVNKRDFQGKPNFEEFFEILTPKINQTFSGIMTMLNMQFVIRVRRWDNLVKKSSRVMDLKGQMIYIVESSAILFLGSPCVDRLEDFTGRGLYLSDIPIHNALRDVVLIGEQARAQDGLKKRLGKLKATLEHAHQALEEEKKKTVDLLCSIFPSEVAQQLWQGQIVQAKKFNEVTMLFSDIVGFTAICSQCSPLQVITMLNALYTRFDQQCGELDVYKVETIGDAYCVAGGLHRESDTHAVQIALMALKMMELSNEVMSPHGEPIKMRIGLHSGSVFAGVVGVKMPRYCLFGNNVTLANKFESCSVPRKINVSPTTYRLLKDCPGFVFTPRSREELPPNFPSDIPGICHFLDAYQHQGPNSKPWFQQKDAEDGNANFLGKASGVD
Test: Effect on a recombinant guanylate cyclase reporter cell line (B-2)
Format: cell-based
Conditions: MEC = minimum effective concentration; in some cases mean values from individual determinations
Procedure: B-2. Effect on a Recombinant Guanylate Cyclase Reporter Cell Line
The cellular activity of the compounds according to the invention is determined using a recombinant guanylate cyclase reporter cell line, as described in F. Wunder et al., Anal. Biochem. 339, 104-112 (2005).
Representative MEC values (MEC=minimum effective concentration) for the compounds of the invention are shown in the table below (in some cases as mean values from individual determinations): […]

| MEC [µM] | SMILES |
| --- | --- |
| 1 | COc1cc(OCc2c(F)cccc2F)c2nc(C)c(C(=O)NC(C#N)c3ccc(Cl)cc3)n2c1 (racemic) [Example 28, rac-N-[(4-chlorophenyl)(cyano)methyl]-8-[(2,6-difluorobenzyl)oxy]-6-methoxy-2-methylimidazo[1,2-a]pyridine-3-carboxamide] |
| 1 | Cc1cc(OCc2c(F)cccc2F)c2nc(C)c(C(=O)NCC(N)CCC#N)n2c1 (racemic) [Example 44, rac-N-(2-Amino-4-cyanobutyl)-8-[(2,6-difluorobenzyl)oxy]-2,6-dimethylimidazo[1,2-a]pyridine-3-carboxamide] |
| 0.3 | Cc1cc(OCc2c(F)cccc2F)c2nc(C)c(C(=O)NCC#N)n2c1 [Example 2, N-(cyanomethyl)-8-[(2,6-difluorobenzyl)oxy]-2,6-dimethylimidazo[1,2-a]pyridine-3-carboxamide] |
| 0.3 | Cc1cc(OCc2c(F)cccc2F)c2nc(C)c(C(=O)NC(C)C#N)n2c1 (single isomer, unassigned) [Example 16, ent-N-(1-Cyanoethyl)-8-[(2,6-difluorobenzyl)oxy]-2,6-dimethylimidazo[1,2-a]pyridine-3-carboxamide] |
| 1 | Cc1cc(OCc2c(F)cccc2F)c2nc(C)c(C(=O)NCC(N)CC#N)n2c1 (single isomer, unassigned) [Example 43, ent-N-(2-Amino-3-cyanopropyl)-8-[(2,6-difluorobenzyl)oxy]-2,6-dimethylimidazo[1,2-a]pyridine-3-carboxamide] |
| 0.3 | Cc1cc(OCc2c(F)cccc2F)c2nc(C)c(C(=O)NCCC#N)n2c1 [Example 9, N-(2-cyanoethyl)-8-[(2,6-difluorobenzyl)oxy]-2,6-dimethylimidazo[1,2-a]pyridine-3-carboxamide] |
| 1 | Cc1cc(OCc2c(F)cccc2F)c2nc(C)c(C(=O)Nc3[nH]ncc3C#N)n2c1 [Example 33, N-(4-cyano-1H-pyrazol-5-yl)-8-[(2,6-difluorobenzyl)oxy]-2,6-dimethylimidazo[1,2-a]pyridine-3-carboxamide] |
| 0.3 | Cc1cc(OCc2c(F)cccc2F)c2nc(C)c(C(=O)Nc3ccccc3CC#N)n2c1 [Example 35, N-[2-(cyanomethyl)phenyl]-8-[(2,6-difluorobenzyl)oxy]-2,6-dimethylimidazo[1,2-a]pyridine-3-carboxamide] |
| 0.3 | Cc1cc(OCc2c(F)cccc2F)c2nc(C)c(C(=O)NC3CCCCC3C#N)n2c1 (stereo not shown) [Example 11, N-(2-cyanocyclohexyl)-8-[(2,6-difluorobenzyl)oxy]-2,6-dimethylimidazo[1,2-a]pyridine-3-carboxamide] |
| 0.1 | Cc1cc(OCc2c(F)cccc2F)c2nc(C)c(C(=O)NC(C#N)c3ccc(Cl)cc3)n2c1 (racemic) [Example 8, rac-N-[(4-chlorophenyl)(cyano)methyl]-8-[(2,6-difluorobenzyl)oxy]-2,6-dimethylimidazo[1,2-a]pyridine-3-carboxamide] |
| 2 | Cc1cc(OCc2c(F)cccc2F)c2nc(C)c(C(=O)NCC(N)CCCC#N)n2c1 (racemic) [Example 45, rac-N-(2-Amino-5-cyanopentyl)-8-[(2,6-difluorobenzyl)oxy]-2,6-dimethylimidazo[1,2-a]pyridine-3-carboxamide] |

| SMILES | MEC [µM] |
| --- | --- |
| Cc1cc(OCCC(C(F)(F)F)C(F)(F)F)c2nc(C)c(C(=O)NC(C#N)c3ccc(Cl)cc3)n2c1 (racemic) [Example 23, rac-N-[(4-chlorophenyl)(cyano)methyl]-2,6-dimethyl-8-[4,4,4-trifluoro-3-(trifluoromethyl)butoxy]imidazo[1,2-a]pyridine-3-carboxamide] | 3 |
| Cc1cc(OCCC(C)C)c2nc(C)c(C(=O)NC(C#N)c3ccc(Cl)cc3)n2c1 (racemic) [Example 25, rac-N-[(4-chlorophenyl)(cyano)methyl]-2,6-dimethyl-8-(3-methylbutoxy)imidazo[1,2-a]pyridine-3-carboxamide] | 3 |
